Data set [1] has as its target T1, GLUT3 (Homo sapiens, UniProt P11169).
T1 construct: expressed in transfected cells
T1 sequence (P11169 1-496): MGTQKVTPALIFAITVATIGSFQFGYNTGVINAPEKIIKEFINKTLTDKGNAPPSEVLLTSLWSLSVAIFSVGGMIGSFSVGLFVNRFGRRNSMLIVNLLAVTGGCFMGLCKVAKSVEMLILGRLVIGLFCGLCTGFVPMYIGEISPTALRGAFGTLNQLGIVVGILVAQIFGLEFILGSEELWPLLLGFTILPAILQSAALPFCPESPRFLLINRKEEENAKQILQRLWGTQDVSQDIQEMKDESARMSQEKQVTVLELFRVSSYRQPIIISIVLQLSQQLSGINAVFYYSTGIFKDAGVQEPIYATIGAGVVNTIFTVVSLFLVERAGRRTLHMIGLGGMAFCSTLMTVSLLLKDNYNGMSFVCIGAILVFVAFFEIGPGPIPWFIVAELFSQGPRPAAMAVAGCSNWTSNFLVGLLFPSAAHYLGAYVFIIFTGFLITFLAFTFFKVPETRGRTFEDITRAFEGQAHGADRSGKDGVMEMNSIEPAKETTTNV
The data set can be described thus: Cellular uptake of TMZ and CAPE by LC-MS/MS, GLUT3 OE U251-MG cells. The format is in vitro ADME. To be noted: for decrease of extracellular drug concentration: GLUT3 OE U251-MG cells, remaining extracellular drug after uptake; for increase of drug uptake by GLUT3 OE: U251-MG cells, 200 μM drug, 37 °C, 15 min, intracellular level vs control. The procedure:
(§1) A total of 6 × 10^6 cells were seeded into each well of a 6 cm Petri dish and cultured at 37 °C in a humidified atmosphere containing 5% CO2 for 8 h. The cells were then washed twice with PBS (137 mM NaCl, 2.7 mM KCl, 10 mM Na2HPO4, 1.8 mM KH2PO4, pH 7.4) and incubated in transport buffer (140 mM NaCl, 5 mM KCl, 2 mM MgCl2, 2 mM CaCl2, 30 mM Tris-HCl, pH 7.4) for 15 min at 37 °C. […] Cell supernatants were collected and stored at 4 °C for subsequent extraction. The harvested cells were washed three times with PBS and extracted with 500 µL of 80% methanol for 30 min at −80 °C. The cell lysate was then centrifuged at 14,000 × g for 5 min at 4 °C, followed by 2 min of sonication. The supernatant was transferred to a new centrifuge tube. For LC-MS/MS analysis, the cell supernatants and cell lysates were diluted at a specific ratio. A total of 100 µL of each sample was mixed with 100 µL of acetonitrile (or standard reagent) and 300 µL of internal standard solution (^2H3-TMZ 100 ng/mL and ^2H11-CAPE 20 ng/mL dissolved in acetonitrile). […] Quality control (QC) samples were prepared and analyzed alongside the experimental samples to monitor the stability and repeatability of the instrument. QC samples were inserted regularly and analyzed every 6–12 samples. Each experiment was repeated 5–6 times.
(§2) LC-MS/MS analyses were performed using a high-performance liquid chromatography (HPLC) system (Shimadzu, LC-20A) coupled to a […] (ABSciex, API4000 QTRAP). The samples were separated on a 2.1 × 100 mm ACQUITY Premier BEH C18 1.7 µm VanGuard™ FIT column (Waters, Ireland). The mobile phases consisted of: Mobile phase A (0.1% formic acid and 2.5 mM ammonium acetate in water) and Mobile phase B (0.1% formic acid and 2.5 mM ammonium acetate in acetonitrile). Gradient elution was employed, with the flow rates and gradient conditions detailed in Table S2.
(§3) The mass spectrometry conditions were as follows: Ion source: electrospray ionization (ESI); Detection mode: positive ion mode; Scanning method: multiple reaction monitoring (MRM); Spray voltage (IS): 5500 V; Ion source temperature (TEM): 555 °C; Gas curtain pressure (CUR): 25 psi; Collision activation dissociation (CAD): MEDIUM; Nebulizer gas pressure (GS1): 55 psi; Auxiliary gas pressure (GS2): 55 psi.

Data set [2] deals with T1, GLUT3. The data set can be described thus: Cellular uptake of TMZ and CAPE by LC-MS/MS, GLUT3 KD U343-MG cells. The format is in vitro ADME. To be noted: for extracellular drug level higher than controls: GLUT3-KD U343-MG cells, remaining extracellular drug after uptake; for reduction of drug uptake by GLUT3 KD: U343-MG cells, 200 μM drug, 37 °C, 15 min, intracellular level vs control. The procedure: as §1, §2, §3

The next data set has as its system U251-MG cells. Briefly: Colony formation assay in U251-MG cells overexpressing GLUT3 Q159A, W386A or WT. In kind it is cell-based, human. To be noted: TMZ 200 μM or CAPE 400 μM every two days. The procedure:
GBM cells were harvested using 0.25% trypsin when cell viability was confirmed to be optimal, and the cell concentration was determined using a hemocytometer. A total of 1 × 10³ cells were seeded into each well of a 6-well plate and incubated at 37 °C overnight. The following day, cell morphology was examined under an inverted microscope. The culture medium was replaced every 2 days, and cell growth was monitored regularly. When cell colonies exceeded 50 cells, they were recorded. The cells were then washed with pre-warmed PBS. Subsequently, the cells were fixed with 4% paraformaldehyde (1 mL per well) for 20 min at room temperature. After fixation, the cells were washed three times with PBS. A total of 1 mL of 0.1% crystal violet staining solution was added to each well for 20 min. The wells were then washed three times with distilled water, covered with a plate lid, and left to dry overnight. The number of colonies in each well was quantified using ImageJ software.
The medium was replaced every 2 days. When colonies visible to the naked eye had formed, the cells were fixed with 4% paraformaldehyde and stained with 0.1% crystal violet as described above. The colonies were then quantified using ImageJ software for statistical analysis.

For data set [3], the target named is GLUT3 mutants. The data set can be described thus: MST binding assay, GLUT3 mutants taken together vs WT. The arrangement: species or system human. The procedure: Data from three independent measurements were analyzed using MO. Affinity Analysis software (version 2.1.3, NanoTemper Technologies).
The test system of data set [4] is GLUT3 mutants. Briefly: TMZ/CAPE uptake by U251-MG cells stably expressing GLUT3 mutants vs WT GLUT3 (LC-MS/MS). In kind it is in vitro ADME, human. To be noted: U251-MG cells expressing GLUT3 mutants with reduced affinity vs WT GLUT3. As to the method:
as §1, with “times. […]” for “times.”

Data set [5] in a line: CC50 determination (CCK-8) in normal astrocyte cell line SVGp12. In kind it is cell-based. To be noted: human, SVGp12 normal astrocyte cells, SVGp12 normal astrocytes. The procedure:
The human normal astrocyte cell line SVGp12 was seeded in a 96-well plate at a density of 5 × 10^3 cells per well and incubated overnight at 37 °C in a humidified atmosphere containing 5% CO2. […] After the treatment period, 10 μL of CCK-8 reagent was added to each well, followed by an additional incubation for 1 h under the same conditions. The absorbance at 450 nm was measured using a microplate reader. In this study, the experimental group treated with TMZ or CAPE was designated as group A, the control group treated with DMSO as group B, and the blank control group without cells as group C. The cell viability rate was calculated using the formula: (A-C)/(B-C) × 100%, where A, B, and C represent the absorbance values of group A, group B, and group C, respectively.

Where [6] appears, read: GLUT3 Q159A vs GLUT3 WT overexpression.
[7] abbreviates: GLUT3 W386A vs GLUT3 WT overexpression.

The results in this text go back to article PMC12354831 (Cell Death Discovery, 2025).

With `Cn1nnc2c(C(N)=O)ncn2c1=O` [TMZ], on GLUT3 [1], the “decrease of extracellular drug concentration” value was found to be 7.7% and the “increase of drug uptake by GLUT3 OE” value is ~ 70%. Also, at GLUT3 [2], the “extracellular drug level higher than controls” value was 3% and the “reduction of drug uptake by GLUT3 KD” value was determined as 54.3%. In the data set on U251-MG cells (setting [6]), the “fold increase in colony numbers” value is listed as 0.97 fold. In addition, the “fold increase in colony numbers” value with U251-MG cells (setting [7]) worked out at 7.3 fold. At GLUT3 mutants [3] (mutants T28A, S71A, Q281A, N286A, W386A, and G417A), the “Kd increase vs WT” value is given as over 1000 fold. Moreover, the “reduction in drug uptake” value in the data set on GLUT3 mutants [4] is on record as 60–70%. Further, in data set [5], the CC50 at 24 h came to 104 ± 21.1 µM.
For the compound `CCCCCOC(=O)Nc1nc(=O)n([C@@H]2O[C@H](C)[C@@H](O)[C@H]2O)cc1F` [CAPE, capecitabine], on GLUT3 [1], the “decrease of extracellular drug concentration” value was 5.4% and the “increase of drug uptake by GLUT3 OE” value was ~ 70%. On GLUT3 [2], the “extracellular drug level higher than controls” value is listed as 12% and the “reduction of drug uptake by GLUT3 KD” value came to 65.5%. Also, the “fold increase in colony numbers” value in the data set with U251-MG cells (setting [6]) amounted to 1.7 fold. Besides, the “fold increase in colony numbers” value in the data set on U251-MG cells (setting [7]) was 4.4 fold. The “Kd increase vs WT” value at GLUT3 mutants [3] (seven mutants) was over 1000 fold. Besides, in the data set on GLUT3 mutants [4], the “reduction in drug uptake” value is on record as 75–95%. Further, it took 163 ± 31.8 µM to reach half-maximal cytotoxicity in data set [5] (CC50 at 24 h).

The term CC50 denotes the concentration giving 50% cytotoxicity. A high value points to lower toxicity to the cells.
